Results on eleven compounds are retold here after patent publication US20260297092A1, “PYRAZOLOPYRIMIDINE DERIVATIVES AS INHIBITORS OF NLRP3” (Takeda Pharmaceutical Company Limited, priority 2023, published 2026).

The term IC50 denotes the midpoint of a concentration-inhibition curve.

The test system of test [1] is NLRP3 inflammasome (IL-1β production in THP-1 cells). Kind of test: IL-1β TR-FRET Assay (percentage of inhibition at 300 nM, 6 μM or 10 μM). It counts as cell-based, human. As to conditions: Homo sapiens, LPS priming, ATP activation; for inhibition at 6 µM: THP-1, 6 μM, read-out: IL-1β inhibitory rate at 6 μM (%); for inhibition at 0.3 µM: THP-1, 300 nM, read-out: IL-1β inhibitory rate at 300 nM (%). In short, it runs like this: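 Percent inhibition of IL-1β used DMSO wells as 0% and 3 μM MCC-950 wells as full inhibition, with supernatant read by HTRF. Beforehand, IFN-γ-differentiated (25 ng/mL, 24 h), LPS-primed (50 ng/mL, 24 h) THP-1 cells received compound 30 min before inflammasome activation by 20 mM ATP for 2 h.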

The test system of test [2] is TNF-α (NF-κB pathway, THP-1 cells). The test is described as follows: TNF-α Assay (IC50). It counts as cell-based, human. As to conditions: Homo sapiens, 600 ng/mL LPS, 3 hours. The essentials: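 Supernatant TNF-α quantified by ELISA after 3 h stimulation with 600 ng/mL LPS at 37 °C, following 30 min compound preincubation. Cells: IFN-differentiated (25 ng/mL, 24 h) THP-1 macrophages, 40,000/well, serum-free. IC50 by sigmoidal fit of % inhibition, with TPCA-1 as 100% control.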

In the case of `CO[C@@H]1CC[C@H]1c1nc2nn(-c3c(C)cc(C4CC4)cc3C)cc2c(=O)[nH]1` (racemic) [Example 253, racemic mixture of 2-(4-cyclopropyl-2,6-dimethylphenyl)-6-[(1R,2S)-2-methoxycyclobutyl]-2,5-dihydro-4H-pyrazolo[3,4-d]pyrimidin-4-one and 2-(4-cyclopropyl-2,6-dimethylphenyl)-6-[(1S,2R)-2-methoxycyclobutyl]-2,5-dihydro-4H-pyrazolo[3,4-d]pyrimidin-4-one], the inhibition at 6 µM in test [1] is 95%. Moreover, the concentration for half-maximal inhibition (IC50) in test [2] was more than 30 µM.
For `CCc1nc2nn(-c3c(C)cc(C4CC4)cc3C)cc2c(=O)[nH]1` [Example 241, 2-(4-cyclopropyl-2,6-dimethylphenyl)-6-ethyl-2,5-dihydro-4H-pyrazolo[3,4-d]pyrimidin-4-one] the same measures were 101% and more than 30 µM.
`Cc1cc(C2CC2)cc(C)c1-n1cc2c(=O)[nH]c(-c3cc4n(n3)CCOC4)nc2n1` [Example 218, 2-(4-cyclopropyl-2,6-dimethylphenyl)-6-(6,7-dihydro-4H-pyrazolo[5,1-c][1,4]oxazin-2-yl)-2,5-dihydro-4H-pyrazolo[3,4-d]pyrimidin-4-one]: the inhibition at 0.3 µM in test [1] is 106%. The IC50 in test [2] is more than 30 µM.
For `CCOc1nc2nn(-c3c(F)cc(Br)cc3C(F)(F)F)cc2c(=O)[nH]1` [Example 19, 2-[4-bromo-2-fluoro-6-(trifluoromethyl)phenyl]-6-ethoxy-2,5-dihydro-4H-pyrazolo[3,4-d]pyrimidin-4-one] the same measures were 95% and more than 30 µM.
For `CCOc1nc2nn(-c3c(C(F)(F)F)cc(C4CC4)nc3C)cc2c(=O)[nH]1` [Example 269, 2-[6-cyclopropyl-2-methyl-4-(trifluoromethyl)pyridin-3-yl]-6-ethoxy-2,5-dihydro-4H-pyrazolo[3,4-d]pyrimidin-4-one], the inhibition at 6 µM in test [1] turned out to be 100%. For the same compound, the IC50 in test [2] is more than 30 µM.
Turning to `COCc1nc2nn(-c3c(C)cc(C)cc3O)cc2c(=O)n1C` [Example 8, 2-(2-hydroxy-4,6-dimethylphenyl)-6-(methoxymethyl)-5-methyl-2,5-dihydro-4H-pyrazolo [3,4-d]pyrimidin-4-one], the inhibition at 0.3 µM in test [1] came out at 92%. Besides, in test [2], the IC50 was more than 30 µM.
For `Cc1ccc(-n2cc3c(=O)[nH]c(OC4CC5(COC5)C4)nc3n2)c(C)c1` [Example 199, 2-(2,4-dimethylphenyl)-6-[(2-oxaspiro[3.3]heptan-6-yl)oxy]-2,5-dihydro-4H-pyrazolo[3,4-d]pyrimidin-4-one] the same measures were 52% and more than 30 µM.
As to `CCOc1nc2nn(-c3c(C)cc(C)c(F)c3F)cc2c(=O)[nH]1` [Example 96, 2-(2,3-difluoro-4,6-dimethylphenyl)-6-ethoxy-2,5-dihydro-4H-pyrazolo[3,4-d]pyrimidin-4-one], the inhibition at 0.3 µM in test [1] worked out at 55%. The concentration for half-maximal inhibition (IC50) in test [2] is more than 30 µM.
For `CCOc1nc2nn(-c3c(C)cc(C)cc3O)c(C)c2c(=O)[nH]1` [Example 37, 6-ethoxy-2-(2-hydroxy-4,6-dimethylphenyl)-3-methyl-2,5-dihydro-4H-pyrazolo[3,4-d]pyrimidin-4-one], in that order: 101% and more than 30 µM.
For `COc1nc2nn(-c3c(C)cc(C4(F)CC4)cc3F)cc2c(=O)[nH]1` [Example 208, 2-[2-fluoro-4-(1-fluorocyclopropyl)-6-methylphenyl]-6-methoxy-2,5-dihydro-4H-pyrazolo[3,4-d]pyrimidin-4-one] the same measures were 102% and more than 30 µM.
In the case of `Cc1cc(C2CC2)cc(C)c1-n1cc2c(=O)[nH]c(C3(F)CC3)nc2n1` [Example 190, 2-(4-cyclopropyl-2,6-dimethylphenyl)-6-(1-fluorocyclopropyl)-2,5-dihydro-4H-pyrazolo[3,4-d]pyrimidin-4-one], the inhibition at 0.3 µM in test [1] was 97%. Besides, in test [2], the IC50 is more than 30 µM.
